Test results reported in patent US20050020556A1, “Method for treating diseases using HSP90-inhibiting agents in combination with platinum coordination complexes” (Kosan Biosciences, Inc., priority 2003, published 2005).
Where two headings read alike, the source gives them in different places.

Columns and labels:
[1] = tested on: ErbB2 protein; assay: ErbB2 protein expression in SKBr3 cells; assay type: cell-based, human
[2] = tested on: ErbB2 protein; assay: ErbB2 protein expression in glioma cells; assay type: cell-based
[3] = background statement; cited from earlier work
[4] = clinical trials, cited from earlier work
[5] = tested on: DLD-1 cells (human colorectal cancer cells); assay: Cell viability (MTS) drug combination assay, combination index, DLD-1 cells; assay type: cell-based; details: combination with 17-AAG, CI<1 synergism
Method: Human colon adenocarcinoma cell line, DLD-1, and human breast adenocarcinoma cell line, SKBr-3, were obtained from American Type Culture Collection (manassas, VA). […] Other cytotoxic agents were purchased commercially from suppliers such as Sigma Chemical Co. (St. Louis, Mo.) and Sequoia Research Products (Oxford, UK). Cells were seeded in duplicate in 96-well microtiter plates at a density of 5,000 cells per well and allowed to attach overnight. […] Cell viability was determined using the MTS assay (Promega). […] Based on the IC50 values of each individual drug, combined drug treatment was designed at constant ratios of two drugs, i.e., equivalent to the ratio of their IC50. Two treatment schedules were used: In one schedule, the cells were exposed to 24 hours of 17-AAG or 17-DMAG. The drug was then added to the cells and incubated for 48 hours. […] Cell viability was determined by the MTS assay. Synergism, additivity or antagonism was determined by median effect analysis using the combination index (CI) calculated using Calcusyn (Biosoft, Cambridge, UK). […] The quantities [Dx]1 and [Dx]2 represent the concentrations of the first and second drug, respectively, that when used alone provide a response of x % in the assay. […] The “enhancing” effect of two drugs can also be determined.

[6] = tested on: SKBr cells (human breast cancer cells); assay: Cell viability (MTS) drug combination assay, combination index, SKBr-3 cells; assay type: cell-based; details: combination with 17-AAG, CI<1 synergism
Method: Human colon adenocarcinoma cell line, DLD-1, and human breast adenocarcinoma cell line, SKBr-3, were obtained from American Type Culture Collection (manassas, VA). […] Other cytotoxic agents were purchased commercially from suppliers such as Sigma Chemical Co. (St. Louis, Mo.) and Sequoia Research Products (Oxford, UK). Cells were seeded in duplicate in 96-well microtiter plates at a density of 5,000 cells per well and allowed to attach overnight. […] Cell viability was determined using the MTS assay (Promega). […] Based on the IC50 values of each individual drug, combined drug treatment was designed at constant ratios of two drugs, i.e., equivalent to the ratio of their IC50. […] The drug was then added to the cells and incubated for 48 hours. […] Cell viability was determined by the MTS assay. Synergism, additivity or antagonism was determined by median effect analysis using the combination index (CI) calculated using Calcusyn (Biosoft, Cambridge, UK). […] The quantities [Dx]1 and [Dx]2 represent the concentrations of the first and second drug, respectively, that when used alone provide a response of x % in the assay. […] The “enhancing” effect of two drugs can also be determined.

[7] = 17-AAG Post-Administration (platinum complex 24 h, then 17-AAG 48 h)

## 17-(allylamino)-17-desmethoxygeldanamycin [17-AAG]
[1]
  expression of ErbB2 protein: reduced the expression of ErbB2 protein
[2]
  expression of ErbB2 protein: reduced the expression of ErbB2 protein
[3]
  hepatotoxicity: reduced hepatotoxicity
[4]; daily x 5 schedule
  MTD: about 40 mg/m^2
[4]; once-weekly regimen
  MTD: about 308 mg/m^2
[4]; twice-weekly regimen
  MTD: about 220 mg/m^2

## CO[C@H]1/C=C\C=C(/C)C(=O)NC2=CC(=O)C(NCCN(C)C)=C(C[C@@H](C)C[C@H](OC)[C@H](O)[C@@H](C)/C=C(\C)[C@@H]1OC(N)=O)C2=O [17-DMAG, 17-(2-dimethylaminoethyl)amino-17-desmethoxygeldanamycin]
[1]
  expression of ErbB2 protein: reduced the expression of ErbB2 protein
[2]
  expression of ErbB2 protein: reduced the expression of ErbB2 protein

## N.N.[Cl][Pt][Cl] [Cisplatin, cisplatin]
[5]; [7]
  CI value (combination index): No Effect
[5]; 17-AAG Pre-Administration (17-AAG 24 h, then platinum complex 48 h), CI=1 additivity, CI>1 antagonism
  CI value (combination index): No Effect
[6]; [7]
  CI value (combination index): Enhancement
[6]; 17-AAG Pre-Administration (17-AAG 24 h, then platinum complex 48 h)
  CI value (combination index): No Effect

## COC1=C2C[C@@H](C)C[C@H](OC)[C@H](O)[C@@H](C)/C=C(\C)[C@H](OC(N)=O)[C@@H](OC)/C=C\C=C(/C)C(=O)NC(=CC1=O)C2=O [geldanamycin, Geldanamycin]
[3]
  hepatotoxicity: unacceptable hepatotoxicity
